The source of these data is patent US20220378791A1, “JAK1 INHIBITORS FOR THE TREATMENT OF MYELODYSPLASTIC SYNDROMES” (Incyte Corporation, priority 2014, published 2022).

In assay [1] the target is T1, human JAK2 (a.a. 828-1132) (Homo sapiens, UniProt O60674).
T1 construct: JAK2 (a.a. 828-1132); His tag (N); made in house; host or cells: insect cells (baculovirus)
Description: In vitro JAK kinase assay (HTRF), JAK2. In kind it is biochemical. Conditions: IC50 ratio, selectivity for JAK1 over JAK2, 1 mM ATP. The procedure: (§1) Compounds herein were tested for inhibitory activity of JAK targets according to the following in vitro assay described in Park et al., Analytical Biochemistry 1999, 269, 94-104. The catalytic domains of human JAK1 (a.a. 837-1142), JAK2 (a.a. 828-1132) and JAK3 (a.a. 781-1124) with an N-terminal His tag were expressed using baculovirus in insect cells and purified. The catalytic activity of JAK1, JAK2 or JAK3 was assayed by measuring the phosphorylation of a biotinylated peptide. The phosphorylated peptide was detected by homogenous time resolved fluorescence (HTRF). […] Reactions were carried out at room temperature for 1 hour and then stopped with 20 μL 45 mM EDTA, 300 nM SA-APC, 6 nM Eu-Py20 in assay buffer (Perkin Elmer, Boston, Mass.). Binding to the Europium labeled antibody took place for 40 minutes and HTRF signal was measured on a Fusion plate reader (Perkin Elmer, Boston, Mass.). See Table 2 for data for compounds of the examples as tested by the assay of Example A at 1 mM ATP.

Assay [2] has as its target T2, human JAK1 (a.a. 837-1142) (Homo sapiens, UniProt P23458).
T2 construct: human JAK1 (a.a. 837-1142); His tag (N); made in house; host or cells: insect cells (baculovirus)
Description: In vitro JAK kinase assay (HTRF), JAK1. It is filed as biochemical. As to conditions: 1 mM ATP. The procedure: as §1, with “Mass.).” for “Mass.). See Table 2 for data for compounds of the examples as tested by the assay of Example A at 1 mM ATP.”
For orientation: Time-resolved FRET reads energy transfer from a long-lived donor to a nearby acceptor.

Assay [3] has as its system MDS patients. As to conditions: 83 patients enrolled, 51 completed 12 weeks of therapy; cited from earlier work.
Assay [4] concerns MDS patients. As to conditions: study of 14 MDS patients; cited from earlier work.

T1 sequence (O60674 828-1132): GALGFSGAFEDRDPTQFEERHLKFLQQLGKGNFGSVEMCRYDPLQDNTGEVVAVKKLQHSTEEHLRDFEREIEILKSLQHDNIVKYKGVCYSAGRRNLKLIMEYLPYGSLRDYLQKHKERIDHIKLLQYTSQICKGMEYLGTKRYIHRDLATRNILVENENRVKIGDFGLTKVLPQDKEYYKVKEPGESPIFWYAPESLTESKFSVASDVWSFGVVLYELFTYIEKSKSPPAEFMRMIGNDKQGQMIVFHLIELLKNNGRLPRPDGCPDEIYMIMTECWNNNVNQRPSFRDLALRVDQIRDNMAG
T2 sequence (P23458 849-1154): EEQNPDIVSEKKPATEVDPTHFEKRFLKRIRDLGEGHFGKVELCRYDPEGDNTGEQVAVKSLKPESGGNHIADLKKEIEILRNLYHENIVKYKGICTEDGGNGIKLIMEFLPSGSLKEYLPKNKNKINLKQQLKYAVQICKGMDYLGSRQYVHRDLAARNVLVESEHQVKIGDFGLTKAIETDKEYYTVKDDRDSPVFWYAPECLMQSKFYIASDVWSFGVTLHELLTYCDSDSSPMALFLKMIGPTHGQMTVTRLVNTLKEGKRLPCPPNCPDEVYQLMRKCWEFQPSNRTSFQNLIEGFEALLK

What is called IC50 is the concentration that inhibits the measured activity by half. As to `N#CCC1(n2cc(-c3ncnc4[nH]ccc34)cn2)CN([C@H]2CC[C@@H](Oc3cc(CN4CC[C@H](O)C4)cc(C(F)(F)F)n3)CC2)C1` [Example 20, {1-(cis-4-{[4-{[(3S)-3-hydroxypyrrolidin-1-yl]methyl}-6-(trifluoromethyl)pyridin-2-yl]oxy}cyclohexyl)-3-[4-(7H-pyrrolo[2,3-d]pyrimidin-4-yl)-1H-pyrazol-1-yl]azetidin-3-yl}acetonitrile], in assay [1], the JAK2/JAK1 is reported as >10. Further, in assay [2], the IC50 is < 10 nM.

Regarding `C[C@@H](CO)NCc1cc(OC2CCN([C@H]3C[C@](CC#N)(n4cc(-c5ncnc6[nH]ccc56)cn4)C3)CC2)nc(C(F)(F)F)c1` [Example 21, {trans-3-(4-{[4-({[(1S)-2-hydroxy-1-methylethyl]amino}methyl)-6-(trifluoromethyl)pyridin-2-yl]oxy}piperidin-1-yl)-1-[4-(7H-pyrrolo[2,3-d]pyrimidin-4-yl)-1H-pyrazol-1-yl]cyclobutyl}acetonitrile], the JAK2/JAK1 in assay [1] was >10. In addition, the IC50 in assay [2] is < 10 nM.

As to `C[C@@H](O)CNCc1cc(OC2CCN([C@H]3C[C@](CC#N)(n4cc(-c5ncnc6[nH]ccc56)cn4)C3)CC2)nc(C(F)(F)F)c1` [Example 22, {trans-3-(4-{[4-({[(2R)-2-hydroxypropyl]amino}methyl)-6-(trifluoromethyl)pyridin-2-yl]oxy}piperidin-1-yl)-1-[4-(7H-pyrrolo[2,3-d]pyrimidin-4-yl)-1H-pyrazol-1-yl]cyclobutyl}acetonitrile], the JAK2/JAK1 in assay [1] is >10. In addition, the IC50 in assay [2] was < 10 nM.

For `C[C@H](O)CNCc1cc(OC2CCN([C@H]3C[C@](CC#N)(n4cc(-c5ncnc6[nH]ccc56)cn4)C3)CC2)nc(C(F)(F)F)c1` [Example 23, {trans-3-(4-{[4-({[(2S)-2-hydroxypropyl]amino}methyl)-6-(trifluoromethyl)pyridin-2-yl]oxy}piperidin-1-yl)-1-[4-(7H-pyrrolo[2,3-d]pyrimidin-4-yl)-1H-pyrazol-1-yl]cyclobutyl}acetonitrile], in assay [1], the JAK2/JAK1 is recorded as >10. The IC50 in assay [2] was < 10 nM.

Consider `N#CC[C@]1(n2cc(-c3ncnc4[nH]ccc34)cn2)C[C@H](N2CCC(Oc3cc(CCO)cc(C(F)(F)F)n3)CC2)C1` [Example 24, {trans-3-(4-{[4-(2-hydroxyethyl)-6-(trifluoromethyl)pyridin-2-yl]oxy}piperidin-1-yl)-1-[4-(7H-pyrrolo[2,3-d]pyrimidin-4-yl)-1H-pyrazol-1-yl]cyclobutyl}acetonitrile], for which the JAK2/JAK1 in assay [1] is reported as >10. For the same molecule, in assay [2], the IC50 is < 10 nM.

For the molecule `O=C1CCC(N2C(=O)c3ccccc3C2=O)C(=O)N1` (centres unmarked) [thalidomide], in assay [3], the “patients showed hematologic improvement” value was 16 patients and the “previously transfusion-dependent patients becoming transfusion independent” value is 10 patients.

As to etanercept, in assay [4], the erythroid hematologic improvement is listed as 25 % of patients; the “improvement in platelet counts and ANC” value is 12.5 % of evaluable patients.
